Patent publication US20260365671A1, “HETEROCYCLIC COMPOUND” (Takeda Pharmaceutical Company Limited, priority 2022, published 2026)

Key:
[1] = target: T1, NLRP3 inflammasome (Homo sapiens, UniProt Q96P20); assay: IL-1β TR-FRET assay (THP-1 cells differentiated to macrophages with IFN-γ, LPS primed, ATP activated; HTRF); assay type: cell-based; conditions: THP-1 macrophages, 50 ng/mL LPS priming, compound 30 min, 20 mM ATP 2 hours
T1 construct: IL-1beta HTRF
Procedure: (§1) The biological activity of Compound (I) with respect to NLRP3 was determined using the following in vitro methods.
IL-1β TR-FRET Assay (Reported as IC50)
Monocytic THP-1 cells (ATCC: TIB-202) were maintained in accordance with the provider's instructions in RPMI media (Life Technologies, Cat #A10491-01); RPMI was supplemented with 10% heat inactivated fetal bovine serum (Corning, Cat #35-010-CV). The cells were differentiated into macrophages by the addition of 25 ng/mL IFN-γ (PeproTech, Cat #AF300-02-100UG) for 24 hours at 37 °C/5% CO2. Media was exchanged with fresh media with no FBS, and the cells were treated with 50 ng/mL LPS (priming step) (LPS-EK: Invivogen, Cat #tlrl-peklps). The cells were plated at 240,000 cells per well in 384-well flat-bottom cell culture plates (FALCON, Cat #353962) and were incubated for 24 hours at 37 °C/5% CO2. Compounds were serially diluted (half log dilutions) with DMSO and were finally diluted with Media with no FBS. The compounds were added to the cells in 384-well plates (added in 1:3) and then the plates were incubated for 30 minutes at 37 °C/5% CO2. The NLRP3 inflammasome was activated with the addition of 20 mM ATP (Sigma Cat #A3377-25G) and the cells were incubated for 2 hours at 37 °C/5% CO2. At the end of the incubation period, 30 μL supernatant was transferred to another 384-well plate and mixed on a plate shaker for 1 minutes. The supernatant was mixed with HTRF Antibody (Human IL1 beta kit, Cisbio, 62HIL1BPEH) in assay plates (Greiner Bio-One, Cat #784075) and the assay plates were incubated in shading box at room temperature for 16-24 hours. HTRF signal was measured by EnVision (Perkinelmer) in accordance with the manufacturer's instructions.
(§2) The IC50 values were calculated from a plot of percentage of inhibition versus the inhibitor concentration by a logistics curve fit according to: Y=[Bottom+(Top−Bottom)]/(1+10^[(Log IC50−X)·Hill Slope], where Y is the % inhibition at the inhibitor concentration, X, “Bottom” is the lowest inhibition value, i.e., 0%, “Top” is the maximum inhibition value, i.e., 100%, and the “Hill Slope” describes the slope of the sigmoidal curve between the “Bottom” and “Top” values. The curve fitting was conducted with XLfit (ver. 5.5.0.5, ID Business Solutions Limited) or internally developed software.
(§3) Table 2 lists in vitro biological assay data (IL-1β and TNF-α) for the compounds shown in the examples. These assays are described in the section entitled Biological Activity, above.

[2] = test system: NF-κB pathway; assay: TNF-α assay (THP-1 cells differentiated to macrophages with IFN-γ, NF-κB pathway activated with LPS; ELISA); assay type: cell-based, Human; conditions: Homo sapiens, THP-1, THP-1 macrophages, compound 30 min, 50 ng/mL LPS 3 hours
Procedure: as §1
TNF-α Assay (Reported as IC50)
Monocytic THP-1 cells (ATCC: TIB-202) were maintained in accordance with the provider's instructions in RPMI media (Life Technologies, Cat #A10491-01); RPMI was supplemented with 10% heat inactivated fetal bovine serum (Hyclone Cat #SH30396.03). The cells were differentiated into macrophages by the addition of 25 ng/mL IFN-γ for 24 hours at 37 °C/5% CO2. Media was exchanged with fresh media with no FBS. The cells were plated at 40,000 cells per well in 384-well flat-bottom cell culture plates (Costar 3764) containing compounds (added in 1:1000) in a 1:3.16 serial dilution series in DMSO and were incubated for 30 minutes at 37 °C/5% CO2. The NF-κB pathway was activated with the addition of 50 ng/mL LPS and the cells were incubated for 3 hours at 37 °C/5% CO2. At the end of the incubation period, supernatant ([…]) was removed, and […] were monitored using an ELISA (Human TNF-α ELISA, R&D systems, Cat #DY210) according to the manufacturer's instructions.
as §2, §3

T1 sequence (Q96P20 whole entry): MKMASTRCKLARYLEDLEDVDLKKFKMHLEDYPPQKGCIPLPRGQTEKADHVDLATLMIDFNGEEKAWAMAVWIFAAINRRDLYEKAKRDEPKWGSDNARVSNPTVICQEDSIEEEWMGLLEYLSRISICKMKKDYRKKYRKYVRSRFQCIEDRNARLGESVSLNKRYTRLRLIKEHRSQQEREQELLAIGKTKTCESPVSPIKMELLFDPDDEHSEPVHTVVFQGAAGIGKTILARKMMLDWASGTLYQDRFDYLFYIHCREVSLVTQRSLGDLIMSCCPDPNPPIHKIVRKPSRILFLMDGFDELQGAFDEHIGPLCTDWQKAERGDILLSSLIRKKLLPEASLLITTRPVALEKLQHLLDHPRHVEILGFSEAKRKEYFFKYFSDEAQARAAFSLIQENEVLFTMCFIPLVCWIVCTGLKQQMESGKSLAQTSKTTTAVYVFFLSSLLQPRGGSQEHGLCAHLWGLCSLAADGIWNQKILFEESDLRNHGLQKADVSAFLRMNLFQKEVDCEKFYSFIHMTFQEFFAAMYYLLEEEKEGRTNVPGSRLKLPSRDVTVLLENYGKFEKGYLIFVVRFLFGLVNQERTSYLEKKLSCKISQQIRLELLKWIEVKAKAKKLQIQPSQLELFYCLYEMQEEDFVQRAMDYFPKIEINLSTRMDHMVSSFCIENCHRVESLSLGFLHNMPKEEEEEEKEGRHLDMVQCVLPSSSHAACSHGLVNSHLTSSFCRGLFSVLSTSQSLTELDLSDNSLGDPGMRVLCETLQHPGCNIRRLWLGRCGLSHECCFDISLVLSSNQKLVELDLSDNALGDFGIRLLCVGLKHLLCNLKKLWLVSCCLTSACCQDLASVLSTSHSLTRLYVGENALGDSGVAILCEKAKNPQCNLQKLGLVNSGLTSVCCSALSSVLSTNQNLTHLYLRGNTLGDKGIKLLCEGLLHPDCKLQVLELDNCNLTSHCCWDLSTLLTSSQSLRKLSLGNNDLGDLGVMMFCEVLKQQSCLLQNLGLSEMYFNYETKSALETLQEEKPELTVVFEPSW

SMILES	IC50 [1] [nM]	IC50 [2] [µM]
CCN1C[C@H](Nc2nc3nn(-c4c(C)cc(C)cc4O)cc3s2)[C@@H](F)C1 (racemic) [Example 21, racemic mixture of 2-(5-{[(3R,4R)-1-ethyl-4-fluoropyrrolidin-3-yl]amino}-2H-pyrazolo[3,4-d][1,3]thiazol-2-yl)-3,5-dimethylphenol and 2-(5-{[(3S,4S)-1-ethyl-4-fluoropyrrolidin-3-yl]amino}-2H-pyrazolo[3,4-d][1,3]thiazol-2-yl)-3,5-dimethylphenol]	160	> 30
Cc1cc(C)c(-n2cc3sc(N[C@H]4CN(C)C[C@H]4F)nc3n2)c(O)c1 (racemic) [Example 22, racemic mixture of 2-(5-{[(3R,4S)-4-fluoro-1-methylpyrrolidin-3-yl]amino}-2H-1-pyrazolo[3,4-d][1,3]thiazol-2-yl)-3,5-dimethyl-phenol and 2-(5-{[(3S,4R)-4-fluoro-methylpyrrolidin-3-yl]amino}-2H-pyrazolo[3,4-d][1,3]thiazol-2-yl)-3,5-dimethylphenol]	1100	> 30
CCN1C[C@@H](F)[C@@H](Nc2nc3nn(-c4c(C)cc(C)cc4O)cc3s2)C1 (racemic) [Example 23, racemic mixture of 2-(5-{[(3R,4S)-1-ethyl-4-fluoropyrrolidin-3-yl]amino}-2H-pyrazolo[3,4-d][1,3]thiazol-2-yl)-3,5-dimethylphenol and 2-(5-{[(3S,4R)-1-ethyl-4-fluoropyrrolidin-3-yl]amino}-2H-pyrazolo[3,4-d][1,3]thiazol-2-yl)-3,5-dimethylphenol]	210	> 30
CC(=O)N1C[C@H](Nc2nc3nn(-c4c(C)cc(C)cc4O)cc3s2)[C@@H](F)C1 (racemic) [Example 104, racemic mixture of 1-[(3R,4R)-3-fluoro-4-{[2-(2-hydroxy-4,6-dimethylphenyl)-2H-pyrazolo[3,4-d][1,3]thiazol-5-yl]amino}pyrrolidin-1-yl]ethan-1-one and 1-[(3S,4S)-3-fluoro-4-{[2-(2-hydroxy-4,6-dimethylphenyl)-2H-pyrazolo[3,4-d][1,3]thiazol-5-yl]amino}pyrrolidin-1-yl] ethan-1-one]	440	> 30
CCC(=O)N1C[C@H](Nc2nc3nn(-c4c(C)cc(C)cc4O)cc3s2)[C@@H](F)C1 (racemic) [Example 105, racemic mixture of 1-[(3R,4R)-3-fluoro-4-{[2-(2-hydroxy-4,6-dimethylphenyl)-2H-pyrazolo[3,4-d][1,3]thiazol-5-yl]amino}pyrrolidin-1-yl]propan-1-one and 1-[(3S,4S)-3-fluoro-4-{[2-(2-hydroxy-4,6-dimethylphenyl)-2H-pyrazolo[3,4-d][1,3]thiazol-5-yl]amino}pyrrolidin-1-yl]propan-1-one]	310	> 30
Cc1cc(C)c(-n2cc3sc(N[C@H]4CN(C(=O)CC5CC5)C[C@@H]4F)nc3n2)c(O)c1 (racemic) [Example 106, racemic mixture of 2-cyclopropyl-1-[(3R,4R)-3-fluoro-4-{[2-(2-hydroxy-4,6-dimethylphenyl)-2H-pyrazolo[3,4-d][1,3]thiazol-5-yl]amino}pyrrolidin-1-yl]ethan-1-one and 2-cyclopropyl-1-[(3S,4S)-3-fluoro-4-{[2-(2-hydroxy-4,6-dimethylphenyl)-2H-pyrazolo[3,4-d][1,3]thiazol-5-yl]amino}pyrrolidin-1-yl]ethan-1-one]	310	> 30
CNC(=O)N1C[C@H](Nc2nc3nn(-c4c(C)cc(C)cc4O)cc3s2)[C@@H](F)C1 (racemic) [Example 119, racemic mixture of (3R,4R)-3-fluoro-4-{[2-(2-hydroxy-4,6-dimethylphenyl)-2H-pyrazolo[3,4-d][1,3]thiazol-5-yl]amino}-N-methylpyrrolidine-1-carboxamide and (3S,4S)-3-fluoro-4-{[2-(2-hydroxy-4,6-dimethylphenyl)-2H-pyrazolo[3,4-d][1,3]thiazol-5-yl]amino}-N-methylpyrrolidine-1-carboxamide]	370	> 30
Cc1cc(C)c(-n2cc3sc(N[C@H]4COC[C@@H]4F)nc3n2)c(O)c1 (racemic) [Example 121, racemic mixture of 2-(5-{[(3R,4S)-4-fluorooxolan-3-yl]amino}-2H-pyrazolo[3,4-d][1,3]thiazol-2-yl)-3,5-dimethylphenol and 2-(5-{[(3S,4R)-4-fluorooxolan-3-yl]amino}-2H-pyrazolo[3,4-d][1,3]thiazol-2-yl)-3,5-dimethylphenol]	590	> 10
Cc1cc(C)c(-n2cc3sc(N[C@H]4COC[C@H]4F)nc3n2)c(O)c1 (racemic) [Example 122, racemic mixture of 2-(5-{[(3R,4R)-4-fluorooxolan-3-yl]amino}-2H-pyrazolo[3,4-d][1,3]thiazol-2-yl)-3,5-dimethylphenol and 2-(5-{[(3S,4S)-4-fluorooxolan-3-yl]amino}-2H-pyrazolo[3,4-d][1,3]thiazol-2-yl)-3,5-dimethylphenol]	580	> 30
Cc1cc(C)c(-n2cc3sc(N[C@H]4CN(C(=O)C(C)(C)O)C[C@@H]4F)nc3n2)c(O)c1 (racemic) [Example 123, racemic mixture of 1-[(3R,4R)-3-fluoro-4-{[2-(2-hydroxy-4,6-dimethylphenyl)-2H-pyrazolo[3,4-d][1,3]thiazol-5-yl]amino}pyrrolidin-1-yl]-2-hydroxy-2-methylpropan-1-one and 1-[(3S,4S)-3-fluoro-4-{[2-(2-hydroxy-4,6-dimethylphenyl)-2H-pyrazolo[3,4-d][1,3]thiazol-5-yl]amino}pyrrolidin-1-yl]-2-hydroxy-2-methylpropan-1-one]	390	> 30
Cc1cc(C)c(-n2cc3sc(N[C@H]4CN(C(=O)C5(O)CC5)C[C@@H]4F)nc3n2)c(O)c1 (racemic) [Example 124, racemic mixture of [(3R,4R)-3-fluoro-4-{[2-(2-hydroxy-4,6-dimethylphenyl)-2H-pyrazolo[3,4-d][1,3]thiazol-5-yl]amino}pyrrolidin-1-yl](1-hydroxycyclopropyl) methanone and [(3S,4S)-3-fluoro-4-{[2-(2-hydroxy-4,6-dimethylphenyl)-2H-pyrazolo[3,4-d][1,3]thiazol-5-yl]amino}pyrrolidin-1-yl](1-hydroxycyclopropyl)methanone]	340	> 30
Cc1cc(C)c(-n2cc3sc(N[C@H]4CN(C(=O)C5(C#N)CC5)C[C@@H]4F)nc3n2)c(O)c1 (racemic) [Example 125, racemic mixture of 1-[(3R,4R)-3-fluoro-4-{[2-(2-hydroxy-4,6-dimethylphenyl)-2H-pyrazolo[3,4-d][1,3]thiazol-5-yl]amino}pyrrolidine-1-carbonyl]cyclopropane-1-carbonitrile and 1-[(3S,4S)-3-fluoro-4-{[2-(2-hydroxy-4,6-dimethylphenyl)-2H-pyrazolo[3,4-d][1,3]thiazol-5-yl]amino}pyrrolidine-1-carbonyl]cyclopropane-1-carbonitrile]	460	> 30
